# Laboratory results reported in PMC9518288, “The mechanism and pharmacodynamics of 2-((1H-indol-3-yl)thio/sulfinyl)-N-pheny acetamide derivative as a novel inhibitor against human respiratory syncytial virus” (Journal of Enzyme Inhibition and Medicinal Chemistry, 2022).
# How the values were obtained:
# [1] = test system: wtRSV in HEp-2 cells; test: Time-of-addition assay (RT-qPCR); format: cell-based, Human respiratory syncytial virus; conditions: wtRSV MOI 5, HEp-2, added at −1 to 14 h, RT-qPCR at 24 h post infection
# Method: The time-of-addition assay was performed as follows according to our previous work and literature[25]^,[27]. HEp-2 cells were plated in 96 well plates at 1.5 × 10^4 cells per well in 100 µL culture medium and incubated for 24 h (37 °C, 5% CO2). Then, HEp-2 cells were infected with wtRSV at a multiplication of infection (MOI) of 5 for 2 h (37 °C, 5% CO2). The cells were washed with PBS and the media containing drugs and compounds of 4–49 C, 1-HB-63, RSV-604, GS-5806 and Ribavirin at 1 mM, 200 μM, 10 μM, 1 mM and 100 μM, respectively, were added at −1, 0, 2, 4, 6, 8, 10, 12 and 14 h post infection. After the treated cells were further cultured and collected at 24 h post infection, the total RNA was isolated from the HEp-2 cells using TRIzol reagent (Thermo Fisher Scientific, Waltham, MA, USA) and reverse transcribed with GoScript Reverse Transcriptase kit (Promega, Madison, WI, USA). Then, RT-qPCR was performed as described previously.
# Figure 2. Investigation on the underlying mechanism 4–49 C and 1-HB-63 inhibiting wtRSV replication. (A) Time-of-addition analyses of 4-49C and 1-HB-63 replication. The HEp-2 cells were infected with wtRSV at a multiplication of infection (MOI) of 5 for 2 h (37 °C, 5% CO2). The cells were washed with PBS and the media containing drug (4-49C, 1-HB-63, RSV-604, GS-5806 and Ribavirin at 1 mM, 200 μM, 10 μM, 1 mM and 100 μM, respectively.) were added at −1, 0, 2, 4, 6, 8, 10, 12 and 14 h separately and incubated till 24 h post infection. Then, the cells were harvested and lysed for RNA extraction and RT-qPCR assay. The results were a representative of three independent experiments, and shown as means ± standard and expressed as % negative control, although in many cases the bars for the standard deviation were obscured by the symbols given the small margin of values. (B) RSV adsorption analyses. […] After 24 h, we cotransfected RSV minigenome plasmid of pBR322B-RSV-Gluc with four auxiliary plasmids into BHK/T7 cells and detected the expression of Gluc in the supernatant. […]
# [2] = test system: RSV minigenome (pBR322B-RSV-Gluc) in BHK-T7 cells; test: RSV minigenome assay (Gluc expression); format: cell-based, Human respiratory syncytial virus; conditions: BHK-T7, 24 h, vs DMSO
# Method: BHK-T7 cells were seeded into 24 well plates at a density of 2 × 10^4 cells/well and incubated for 24 h. Then the RSV minigenome plasmid encoding […] (pBR322B-RSV-Gluc) was mixed with the helper plasmids (pCITE-N, pCITE-P, pCITE-L and pCITE-M2-1) in an Eppendorf tube containing 250 μL Opti-MEM. Meanwhile, the transfection reagent of Lipofectamine 2000 (Invitrogen, CA, USA) was diluted in another tube containing 250 μL Opti-MEM and incubated 5 min at room temperature. Then, the plasmids were mixed with the transfection reagent and incubated at room temperature for 30 min. After that, the BHK-T7 culture media were replaced with the DNA-lipo-optiMEM mixture and incubated for 4 ∼ 6 h (37 °C, 5% CO2). Then the DNA-lipo-optiMEM mixture was replaced with media containing the compounds (4–49 C at 1 mM and 1-HB-63 at 200 μM) and further incubated for 24 h (37 °C, 5% CO2). Finally, after the supernatant of the BHK-T7 cells was transferred into 96 well plate, the Gluc activity was determined by using LUMI star (BMG ABTECH, Ortenberg, Germany) following the manufacturer’s instructions after adding the chromogenic substrate of Gaussia Luciferase Flex Assay Kit (NEB, Ipswich, USA). The results were recorded by photography and/or evaluated with OPTIMA software (BMG LABTECH). The resultant signal strength was quantified as relative light unit (RLU).
# (§1) Figure 2. Investigation on the underlying mechanism 4–49 C and 1-HB-63 inhibiting wtRSV replication. (A) Time-of-addition analyses of 4-49C and 1-HB-63 replication. The HEp-2 cells were infected with wtRSV at a multiplication of infection (MOI) of 5 for 2 h (37 °C, 5% CO2). The cells were washed with PBS and the media containing drug (4-49C, 1-HB-63, RSV-604, GS-5806 and Ribavirin at 1 mM, 200 μM, 10 μM, 1 mM and 100 μM, respectively.) were added at −1, 0, 2, 4, 6, 8, 10, 12 and 14 h separately and incubated till 24 h post infection. Then, the cells were harvested and lysed for RNA extraction and RT-qPCR assay. The results were a representative of three independent experiments, and shown as means ± standard and expressed as % negative control, although in many cases the bars for the standard deviation were obscured by the symbols given the small margin of values. (B) RSV adsorption analyses. After HEp-2 cells seeded into 24 well plates for 24 h, the cold media containing RSV (5 MOI) and compounds of 4–49C, 1-HB-63 and P13 at 1 mM, 200 μM and 100 μM, respectively, was added and incubated for 1 h at 4 °C. Then, the total RNA was isolated and RT-qPCR was performed. (C) RSV minigenome assay. After 24 h, we cotransfected RSV minigenome plasmid of pBR322B-RSV-Gluc with four auxiliary plasmids into BHK/T7 cells and detected the expression of Gluc in the supernatant. […]
# [3] = test system: RSV adsorption to HEp-2 cells; test: RSV adsorption analyses (RT-qPCR); format: cell-based, Human respiratory syncytial virus; conditions: RSV 5 MOI, 1 h at 4 °C
# Method: as §1
# [4] = test system: RSV-Luc; test: In vivo mouse imaging, intraperitoneal injection; set-up: species or system BALB/c mice; conditions: i.p. 10, 30, 90 mg/kg once a day, days 1-5; except 4–49 C 10 and 90 mg/kg groups on the second day
# Method: (§2) Female BALB/c mice of 6-8 weeks were purchased from Charles River Laboratories, Beijing, China and randomly divided into different groups with six mice in each group. All animal experiments were performed in compliance with protocols approved by the Institutional Animal Care and Use Committees of Tsinghua University (No. 17-DZJ1). The compounds (DMSO and ribavirin of 90 mg/kg was used as negative and positive control, respectively) with three different dose groups of 10, 30 and 90 mg/kg were administered to mice by intraperitoneal (i.p.) injection or oral route (anaesthesia with 2% halothane) at zero day and 1 h prior to the mice infected with 50 μL RSV-Luc (1 × 10^6 PFU), and then once a day for 5 consecutive days post RSV-Luc infection. For the in vivo mouse imaging, 50 μL PBS containing D-Luciferin Potassium Salt (75 mg/kg) was administered to BALB/c mice via nasal drip at days 1, 2, 3, 4 and 5 since RSV-Luc infection, and 5 min later, the whole-body images of BALB/c mice were acquired using an IVIS Lumina II in vivo imaging system (PE, Waltham, MA, USA). And the signal intensity was quantified as the total flux (photons/seconds) using Living Image software (PE).
# Female BALB/c mice of 6–8 weeks were randomly divided into different groups with 6 mice in each group. […]
# [5] = test system: RSV-Luc; test: Determination of RSV titre from lung tissues (RT-qPCR); format: in vivo, BALB/c mice; conditions: i.p. 10, 30, 90 mg/kg, day 5 post-infection
# Method: Following the experiment of the in vivo mouse imaging mentioned above, the mice were sacrificed. The lung tissues were collected, weighed, quickly frozen under liquid nitrogen and ground with a tissue homogeniser. Then the total RNA was extracted by Trizol from 100 µL homogenates. The viral RNA sample (1 µL) was mixed with the SYBR Green supermix (10 µL), plasmid pMD-18T-N (1 µL, copy number from 1 × 10^7 copies/μL to 1 × 10^5 copies/μL), the upstream and downstream primers, respectively (10 µM, 1 µL) and water (1 µL). Reactions were performed in SLAN-96P Real-Time PCR System (Shanghai Hongshi Medical Technology) as follows: 42 °C for 60 min (for reverse transcription), 95 °C for 1.5 min, 95 °C for 15 s and 60 °C for 1 min, for 40 cycles. The reaction data were analysed by determining the threshold cycle (Ct).
# Female BALB/c mice of 6–8 weeks were randomly divided into different groups with 6 mice in each group. All animal experiments were performed in compliance with protocols approved by the Institutional Animal Care and Use Committees of Tsinghua University (No. 17-DZJ1). At day 0, three different doses of 4–49 C and 1-HB-63 (10 mg/kg, 30 mg/kg, 90 mg/kg) were administered to mice by intraperitoneal (i.p.) injection, respectively, with DMSO and ribavirin of 90 mg/kg separately used as negative and positive control. […]
# [6] = test system: RSV-Luc; test: In vivo mouse imaging, oral route (intragastric); set-up: species or system BALB/c mice; conditions: intragastric 30 and 90 mg/kg, gavage twice a day
# Method: as §2, with “and then once a day for 5 consecutive days post RSV-Luc infection.” left out
# In order to further make clear whether the anti-RSV activity of 4–49 C and 1-HB-63 is dependent on the administration route or not, these two compounds were given intragastrically (Figure 5(A)). […]
# [7] = Pharmacokinetic study in rat; format: in vivo, Sprague − Dawley (SD) rats; conditions: SD rat
# Method: Six male Sprague − Dawley (SD) rats, randomly divided into two groups of 3 each, were treated with 4–49 C predissolved in 5% DMSO, 5% Solutol and 90% Saline by intravenous injection (iv, 5 mg/kg) and in 5% DMSO and 95% (0.5%MC) by intragastric administration (ig, 10 mg/kg), respectively. Blood samples (100 μL) were collected into K2-EDTA tubes by retro‐orbital bleeding under anaesthesia using isoflurane at 0.033, 0.083, 0.25, 0.5, 1, 2, 4, 7 and 24 h after dosing. And then plasma samples were obtained by centrifuging at 5000 rpm for 10 min at 4 °C and stored at −80 °C until analysis using HPLC–MS/MS.
# To investigate the pharmacokinetic parameters in vivo, 4–49 C was selected for the pharmacokinetic experiments in SD rat model. The SD rats were divided into two groups (n = 3) and treated by iv at 5 mg/kg dose and by ig at 10 mg/kg dose, respectively. Plasma samples were collected up to 24 h postdosing and the concentration of 4–49 C was measured by using HPLC-MS/MS.
# [8] = positive controls, concentration not given
# [9] = male, Sprague-Dawley, iv, 5 mg/kg, plasma, n = 3, Mean ± SD
smiles,measurement,setting,value
"Cc1cn2nc([C@@H]3CCCCN3C(=O)c3cc(Cl)ccc3NS(C)(=O)=O)cc2nc1N1CC[C@H](N)C1 [GS-5806, reference compound]",time points of addition at which virus replication is inhibited,[1]; compound at 1 mM,inhibition activity only when added up to 0 and 2 h
same,inhibition of expression of Gluc gene,[2]; [8],could not be inhibited
CCOc1ccccc1NC(=O)CSc1c[nH]c2ccc(OC)cc12 [4–49 C],time points of addition at which virus replication is inhibited,[1]; compound at 1 mM,"significantly inhibited virus replication when added at the time points of −1, 0 and 2 h"
same,inhibition of RSV replication by preventing virus adsorption,[3]; 4-49C at 1 mM,neither of 4-49 C and 1-HB-63 inhibited RSV replication by preventing virus adsorption
same,inhibition of expression of Gluc gene,[2]; 4–49 C at 1 mM,could not be inhibited
same,fluorescence signals (RSV-Luc replication in lungs) compared with DMSO-treated group,[4],did not display significant differences
same,virus titres in lung tissues compared with DMSO,[5],no significant differences
same,fluorescence signals (RSV-Luc replication) compared with DMSO negative control group,[6],did not exhibit significant differences
same,concentration in plasma samples after ig administration,"[7]; ig, 10 mg/kg, up to 24 h, HPLC-MS/MS (data not shown)",no 4–49 C detected in plasma samples
same,MRTIV,"[7]; iv, 5 mg/kg, plasma, n = 3, Mean ± SD",7.86 ± 0 min
same,AUC(0-inf),[7]; [9],70 ± 17 ng·h/mL
same,AUC(0-t),[7]; [9],69.3 ± 17 ng·h/mL
same,Cmax,[7]; [9],454 ± 111 ng/mL
same,half-life,[7]; [9],10 ± 18 min
same,k el,[7]; [9],0.00119 s⁻¹
O=C(C[S+]([O-])c1c[nH]c2ccccc12)Nc1ccccc1Br (stereo not shown) [1-HB-63],time points of addition at which virus replication is inhibited,[1]; compound at 200 μM,"significantly inhibited virus replication when added at the time points of −1, 0, 2 and 4 h"
same,inhibition of RSV replication by preventing virus adsorption,[3]; 1-HB-63 at 200 μM,neither of 4-49 C and 1-HB-63 inhibited RSV replication by preventing virus adsorption
same,inhibition of expression of Gluc gene,[2]; 1-HB-63 at 200 μM,sharply contrast
same,fluorescence signals (RSV-Luc replication in lungs) compared with DMSO-treated group,[4],did not display significant differences
same,virus titres in lung tissues compared with DMSO,[5],no significant differences
same,fluorescence signals (RSV-Luc replication) compared with DMSO negative control group,[6],did not exhibit significant differences
"NC(=O)c1ncn([C@@H]2O[C@H](CO)[C@@H](O)[C@H]2O)n1 [ribavirin, Ribavirin, reference compound]",inhibition of expression of Gluc gene,[2]; [8],sharply contrast
